Experimental data reported in patent US20170158702A1, “MULTIVALENT RAS BINDING COMPOUNDS” (KYRAS THERAPEUTICS, INC., priority 2015, published 2017).
Structures can show the parent of a compound that is named as a salt.

What was measured:
Assay type in all cases: cell-based
NCI-H460 = test: Viability assay with NCI-H460 (CellTiter-Glo cytotoxicity assay, 72 h); settings: NCI-H460 cell line, 72 h after compounds addition
Procedure, shortened: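 NCI-H460 cells, RPMI 1640 + 10% FBS, seeded 1200/well and adhered overnight, then exposed to compounds at 9 points, 2-fold dilution, in triplicate, 0.5% DMSO final. Cellular ATP measured by CellTiter-Glo luminescence 72 h after addition.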

NCI-H2023 = test: Viability assay with NCI-H2023; settings: NCI-H2023, viability assay per Example 57
Method: NCI-H460 (Epithelial lung tissue; carcinoma; large cell lung cancer) were cultured in RPMI Medium 1640 (Invitrogen-22400105) supplemented with 10% fetal bovine serum (FBS; Invitrogen-10099141). All the cell lines were maintained in a humidified incubator at 37° C. with 5% CO2. Cell culture media and supplements were purchased from Invitrogen, and tissue culture flasks were purchased from Corning, 96-well plates were purchased from Greiner. CellTiter-Glo Luminescent Cell Viability Assay kits were purchased from Promega (Promega-G7573), cells counter Vi-Cell was purchased from Beckman, D300e digital dispenser was purchased from Tecan, detection instrument Envision was purchased from PerkinElmer.
Paclitaxel was purchased from SELLECK, test compounds, such as any one of the compounds disclosed herein, attained solubility in DMSO and when diluted into culture media. DMSO, solutions containing the test compounds, and culture media were warmed to 37° C. or room temperature for the solution preparation and dilutions.
NCI-H460 Cell line were seeded in 96-well plates (1200/well) and allowed to adhere to overnight (100 uL/well), for drug treatments with 2 fold dilution, 9 dose points, triplicates or vehicle control, compound stock solutions were prepared in DMSO and use D300e digital dispenser to add compounds to the wells to give the indicated final drug concentrations. Final DMSO concentration was 0.5%. Cellular ATP concentrations were assessed by using the CellTiter-Glo Cell Viability Assay as per the manufacturer's instructions 72 h after compounds addition. Additional cells lines were assayed with any one of the compounds disclosed herein according to the procedures described for the viability assay with NCI-H460.
A viability assay with NCI-H2023 (stage 3A, adenocarcinoma; non-small cell lung cancer) was performed with compounds listed in Table 16 according to the procedures described in Example 57.

MIA PaCa-2 = test: Viability assay with MIA PaCa-2; settings: MIA PaCa-2, viability assay per Example 57
Procedure, shortened: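 MIA PaCa-2 cells were seeded at 1200/well, allowed to adhere overnight, then treated in triplicate with 9-point 2-fold compound dilutions at 0.5% final DMSO. Viability was measured as cellular ATP by CellTiter-Glo luminescence 72 h after compound addition.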

HT-29 = test: Viability assay with HT-29; settings: HT-29, viability assay per Example 57
Procedure, shortened: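 Cells seeded 1200/well, adhered overnight, then treated with 9-point 2-fold compound dilutions in triplicate (0.5% final DMSO). Viability taken as cellular ATP by CellTiter-Glo luminescence 72 h after compound addition.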

Compound	EC50 (NCI-H2023) [µM]	EC50 (MIA PaCa-2) [µM]	EC50 (MIA PaCa-2; Homo sapiens) [µM]	EC50 (HT-29) [µM]	EC50 (NCI-H460) [µM]	EC50 (NCI-H460; Homo sapiens) [µM]
NCC(=O)NCCCn1cc(-c2ccc(OC(F)(F)F)cc2)c2cc(CN3CCN(Cc4c(Cl)cccc4Cl)CC3)ccc21 [C52; HCl]	≤ 5	≤ 5	–	–	≤ 5	–
COc1cccc(OC)c1CN1CCN(Cc2ccc3c(c2)c(-c2ccc(OC(F)(F)F)cc2)cn3CCCNC(=O)C2(N)CCNCC2)CC1 [C49; HCl]	5 to 10	5 to 10	–	–	5 to 10	–
NC1(C(=O)NCCCn2cc(-c3ccc(OC(F)(F)F)cc3)c3cc(CN4C5CCC4CN(Cc4c(Cl)cccc4Cl)C5)ccc32)CCNCC1 [C56; HCl]	≤ 5	≤ 5	–	–	≤ 5	–
NCCCn1cc(-c2ccc(O)cc2)c2cc(CN3CCN(Cc4c(Cl)cccc4Cl)CC3)ccc21 [C44; HCl]	≤ 5	≤ 5	–	–	≤ 5	–
Cc1ccc(-c2cn(CCCNC(=O)C3(N)CCNCC3)c3ccc(CN4CCN(Cc5c(Cl)cccc5Cl)CC4)cc23)cc1 [C39; HCl]	≤ 5	≤ 5	–	–	≤ 5	–
NCCCn1cc(-c2ccc(F)cc2)c2cc(CN3CCN(Cc4c(Cl)cccc4Cl)CC3)ccc21 [C23; Formic acid]	≤ 5	≤ 5	–	–	≤ 5	–
CN(C)Cc1ccc2c(c1)c(-c1ccc(OC(F)(F)F)cc1)cn2CCCNC(=O)C1(N)CCNCC1 [C29; HCl]	10 to 30	> 30	–	–	10 to 30	–
CNCCCn1cc(-c2ccc(OC(F)(F)F)cc2)c2cc(CN3CCN(Cc4c(Cl)cccc4Cl)CC3)ccc21 [C21; Formic acid]	≤ 5	≤ 5	–	–	≤ 5	–
CC(C)N1CCN(Cc2ccc3c(c2)c(-c2ccc(OC(F)(F)F)cc2)cn3CCCNC(=O)C2(N)CCNCC2)CC1 [C34; HCl]	10 to 30	10 to 30	–	–	10 to 30	–
OCCNCCCn1cc(-c2ccc(OC(F)(F)F)cc2)c2cc(CN3CCN(Cc4c(Cl)cccc4Cl)CC3)ccc21 [Compound C20, 2-(3-(5-((4-(2,6-dichlorobenzyl)piperazin-1-yl)methyl)-3-(4-(trifluoromethoxy)phenyl)-1H-indol-1-yl)propylamino)ethanol]	≤ 5	–	≤ 5	–	–	≤ 5
CCN1CCN(Cc2ccc3c(c2)c(-c2ccc(OC(F)(F)F)cc2)cn3CCCNC(=O)C2(N)CCNCC2)CC1 [C27; HCl]	10 to 30	10 to 30	–	–	> 30	–
NC1(C(=O)NCCCn2cc(-c3ccc(OC(F)(F)F)cc3)c3cc(CN4CCN(Cc5c(F)cccc5F)CC4)ccc32)CCNCC1 [C55; HCl]	≤ 5	≤ 5	–	–	≤ 5	–
N#Cc1cccc(-c2cn(CCCN)c3ccc(CN4CCN(Cc5c(Cl)cccc5Cl)CC4)cc23)c1 [C13; HCl]	≤ 5	≤ 5	–	–	≤ 5	–
NC1(C(=O)NCCCn2cc(-c3ccc(OC(F)(F)F)cc3)c3cc(CN4CCN(Cc5c(Cl)cccc5Cl)CC4)ccc32)CCNCC1 [C41; Trifluoroacetic acid]	≤ 5	≤ 5	–	–	≤ 5	–
CC(=O)NCCCn1cc(-c2ccc(OC(F)(F)F)cc2)c2cc(CN3CCN(Cc4c(Cl)cccc4Cl)CC3)ccc21 [C47; Formic acid]	≤ 5	≤ 5	–	–	≤ 5	–
NCCCn1cc(-c2ccc(OC(F)(F)F)cc2)c2c(CN3CCN(CCc4ccccc4Cl)CC3)cccc21 [C147; HCl]	–	≤ 5	–	≤ 5	≤ 5	–
COc1cccc(CC2CN(Cc3ccc4c(c3)c(-c3ccc(OC(F)(F)F)cc3CN)cn4CCCN)C2)c1 [C279; Formic Acid]	–	≤ 5	–	≤ 5	≤ 5	–
NCCc1cccc(-n2cc(-c3ccc(OC(F)(F)F)cc3)c3cc(CN4CCN(Cc5ccccc5Cl)CC4)ccc32)c1 [C235; Formic Acid]	–	≤ 5	–	≤ 5	≤ 5	–

Now from value to molecule, other results behind:

EC50 (NCI-H2023) [µM]	EC50 (MIA PaCa-2) [µM]	EC50 (MIA PaCa-2; Homo sapiens) [µM]	EC50 (HT-29) [µM]	Compound	EC50 (NCI-H460) [µM]	EC50 (NCI-H460; Homo sapiens) [µM]
≤ 5	≤ 5	–	–	NCCNCCCn1cc(-c2ccc(OC(F)(F)F)cc2)c2cc(CN3CCN(Cc4c(Cl)cccc4Cl)CC3)ccc21 [C26; HCl]	≤ 5	–
≤ 5	≤ 5	–	–	NC1(C(=O)NCCCCn2cc(-c3ccc(OC(F)(F)F)cc3)c3cc(CN4CCN(Cc5c(Cl)cccc5Cl)CC4)ccc32)CCNCC1 [C35; HCl]	≤ 5	–
≤ 5	≤ 5	–	–	NCCCn1cc(-c2ccc(OC(F)(F)F)cc2)c2cc(CN3CC4CCC(C3)N4Cc3ccccc3Cl)ccc21 [C17; HCl]	≤ 5	–
≤ 5	≤ 5	–	–	NCCCn1cc(-c2ccc(OC(F)(F)F)cc2)c2cc(CN3CCN(C(=O)c4ccccc4Cl)CC3)ccc21 [C15; HCl]	≤ 5	–
5 to 10	–	≤ 5	–	CCOC(=O)CNCCCn1cc(-c2ccc(OC(F)(F)F)cc2)c2cc(CN3CCN(Cc4c(Cl)cccc4Cl)CC3)ccc21 [Compound C28, ethyl 2-(3-(5-((4-(2,6-dichlorobenzyl)piperazin-1-yl)methyl)-3-(4-(trifluoromethoxy)phenyl)-1H-indol-1-yl)propylamino)acetate]	–	5 to 10
≤ 5	≤ 5	–	–	NCCCn1cc(-c2ccc(N)nc2)c2cc(CN3CCN(Cc4c(Cl)cccc4Cl)CC3)ccc21 [C18; HCl]	≤ 5	–
> 30	> 30	–	–	CNCc1ccc2c(c1)c(-c1ccc(OC(F)(F)F)cc1)cn2CCCNC(=O)C1(N)CCNCC1 [C16; HCl]	> 30	–
≤ 5	≤ 5	–	–	CC(C)(N)C(=O)NCCCn1cc(-c2ccc(OC(F)(F)F)cc2)c2cc(CN3CCN(Cc4c(Cl)cccc4Cl)CC3)ccc21 [C46; HCl]	≤ 5	–
≤ 5	≤ 5	–	–	N#Cc1ccc(-c2cn(CCCNC(=O)C3(N)CCNCC3)c3ccc(CN4CCN(Cc5c(Cl)cccc5Cl)CC4)cc23)cc1 [C40; HCl]	≤ 5	–
5 to 10	5 to 10	–	–	NCCCn1cc(-c2ccccc2)c2cc(CN3CCN(Cc4c(Cl)cccc4Cl)CC3)ccc21 [C37; HCl]	≤ 5	–
≤ 5	≤ 5	–	–	N#Cc1ccc(-c2cn(CCCN)c3ccc(CN4CCN(Cc5c(Cl)cccc5Cl)CC4)cc23)cc1 [C33; HCl]	≤ 5	–
≤ 5	≤ 5	–	–	N[C@H]1CC[C@H](n2cc(-c3ccc(OC(F)(F)F)cc3)c3cc(CN4CCN(Cc5c(Cl)cccc5Cl)CC4)ccc32)C1 [C42; HCl]	≤ 5	–
≤ 5	≤ 5	–	–	Cc1cccc(C)c1CN1CCN(Cc2ccc3c(c2)c(-c2ccc(OC(F)(F)F)cc2)cn3CCCNC(=O)C2(N)CCNCC2)CC1 [C54; HCl]	≤ 5	–
≤ 5	≤ 5	–	–	NCCCn1cc(-c2ccc(OC(F)(F)F)cc2)c2cc(CN3CC4CCC(C3)N4Cc3c(Cl)cccc3Cl)ccc21 [C32; HCl]	≤ 5	–
≤ 5	≤ 5	–	–	Cc1ccc(-c2cn(CCCN)c3ccc(CN4CCN(Cc5c(Cl)cccc5Cl)CC4)cc23)cc1 [C51; HCl]	≤ 5	–
≤ 5	≤ 5	–	–	NCCCn1cc(-c2ccc(OC(F)(F)F)cc2)c2cc(CN3CCN(S(=O)(=O)c4ccccc4Cl)CC3)ccc21 [C14; HCl]	≤ 5	–
> 30	> 30	–	–	NC1(C(=O)NCCCn2cc(-c3ccc(OC(F)(F)F)cc3)c3cc(CN4CCNCC4)ccc32)CCNCC1 [C48; HCl]	> 30	–
–	≤ 5	–	≤ 5	CNCc1cc(OC(F)(F)F)ccc1-c1cn(CCCN)c2ccc(CN3CCN(Cc4ccccc4Cl)CC3)cc12 [C238; HCl]	≤ 5	–
–	5 to 10	–	5 to 10	FC(F)(F)Oc1ccc(-c2cn(CCNc3ccccn3)c3ccc(CN4CCN(Cc5ccccc5Cl)CC4)cc23)cc1 [C199; HCl]	5 to 10	–
–	≤ 5	–	≤ 5	Cc1ccc(-c2cn(CCCN)c3ccc(CN4CCN(Cc5ccccc5Cl)CC4)cc23)c(CN)c1 [C223; HCl]	≤ 5	–
–	≤ 5	–	≤ 5	COc1cc(OC)cc(OC2CCN(Cc3ccc4c(c3)c(-c3ccc(OC(F)(F)F)cc3CN)cn4CCCN)CC2)c1 [C281; HCl]	≤ 5	–
